From patent US20240277658A1, “NLRP3 ACTIVATORS FOR USE IN THE TREATMENT OF INFECTIOUS DISEASES OR CANCER BY ACTIVATING NLRP3 INFLAMMASOME” (ALBERT-LUDWIGS-UNIVERSITÄT FREIBURG, priority 2020, published 2024)
Several values for one entry are separate records, joined by “and”; a condition that tells them apart may be missing. Equal entries are not always repeated. Structures can show the parent of a compound that is named as a salt. Where two headings read alike, the source gives them in different places.

Columns and labels:
[1] = target: T1, NLRP3 inflammasome (Mus musculus, UniProt Q8R4B8); assay: IL-1β release from LPS-primed BMDCs (ELISA) as readout of NLRP3 inflammasome activation; format: cell-based
T1 construct: endogenous in cells; host or cells: primary mouse bone marrow-derived dendritic cells (BMDCs), LPS-primed
T1 sequence (Q8R4B8 whole entry): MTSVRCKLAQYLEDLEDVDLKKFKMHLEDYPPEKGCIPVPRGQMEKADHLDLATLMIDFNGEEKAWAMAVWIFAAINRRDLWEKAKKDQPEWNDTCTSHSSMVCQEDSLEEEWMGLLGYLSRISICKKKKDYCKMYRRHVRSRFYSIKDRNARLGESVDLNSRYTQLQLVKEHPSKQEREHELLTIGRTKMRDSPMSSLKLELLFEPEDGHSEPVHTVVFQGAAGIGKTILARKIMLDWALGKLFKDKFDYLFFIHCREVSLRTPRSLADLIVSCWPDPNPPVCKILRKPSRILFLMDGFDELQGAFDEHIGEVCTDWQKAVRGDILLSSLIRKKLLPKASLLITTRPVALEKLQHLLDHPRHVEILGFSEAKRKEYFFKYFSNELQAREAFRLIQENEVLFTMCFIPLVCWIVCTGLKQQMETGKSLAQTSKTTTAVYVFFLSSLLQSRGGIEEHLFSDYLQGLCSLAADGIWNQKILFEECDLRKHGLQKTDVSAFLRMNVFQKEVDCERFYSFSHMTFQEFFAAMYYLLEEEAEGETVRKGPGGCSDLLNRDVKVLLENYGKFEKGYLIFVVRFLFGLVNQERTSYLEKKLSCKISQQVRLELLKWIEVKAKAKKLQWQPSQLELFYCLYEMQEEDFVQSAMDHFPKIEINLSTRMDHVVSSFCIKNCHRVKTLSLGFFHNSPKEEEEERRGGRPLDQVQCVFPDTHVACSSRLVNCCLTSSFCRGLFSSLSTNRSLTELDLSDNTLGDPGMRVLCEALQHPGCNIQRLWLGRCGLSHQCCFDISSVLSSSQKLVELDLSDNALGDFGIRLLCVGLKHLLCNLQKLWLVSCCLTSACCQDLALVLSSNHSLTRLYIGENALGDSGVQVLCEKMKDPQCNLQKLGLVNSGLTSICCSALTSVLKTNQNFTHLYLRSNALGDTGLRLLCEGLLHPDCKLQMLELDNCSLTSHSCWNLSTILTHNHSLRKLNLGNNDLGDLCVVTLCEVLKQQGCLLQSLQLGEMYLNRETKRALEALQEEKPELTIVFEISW
Outline: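 NLRP3 inflammasome activation was read out as IL-1β released into the supernatant, measured by ELISA. Murine BMDCs were primed with LPS (50 ng ml^−1, 3 hours), then incubated with compounds for 3 hours, with each condition run in three technical replicates. Nigericin at 5 μM acted as the positive control activator, and IL-1β release was also expressed as a percentage of that control.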

[2] = system: BMDCs; assay: LDH release (lytic cell death, pyroptosis) from LPS-primed BMDCs; format: cell-based, mouse; settings: for Average (% positive control): LDH release; for cytotoxicity at 50 µM / cytotoxicity at 5 µM / cytotoxicity at 18.75 µM / cytotoxicity at 37.5 µM / cytotoxicity at 75 µM: Mus musculus, BMDC
Outline: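 Mouse BMDCs (7-9 days differentiated, GM-CSF) primed with 50 ng ml^−1 E. coli K12 LPS for 3 hours, then exposed 3 hours to compounds (50 μM unless indicated) or activators (nigericin 5 μM; R837, CL097 100 μM). Lytic death measured as LDH release by colorimetric assay, triplicate wells.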

[3] = IL-1β release, compound 50 μM, positive control nigericin 5 μM
[4] = compound 50 μM, LPS-primed BMDCs
[5] = single replicates, compound 50 μM, LPS-primed BMDCs
[6] = compound 50 μM, positive control nigericin 5 μM
[7] = compound 50 μM, LPS-primed BMDCs, read-out: Average LDH release (% of max.)
[8] = single replicates, compound 50 μM, LPS-primed BMDCs, read-out: LDH release (% of max.)
[9] = 18.75 μM, individual replicate values
[10] = 37.5 μM, individual replicate values
[11] = 75 μM, individual replicate values
[12] = IL-1β, 18.75 μM, positive control EN22 18.75 μM
[13] = IL-1β, 37.5 μM, positive control EN22 18.75 μM
[14] = IL-1β, 75 μM, positive control EN22 18.75 μM
[15] = section 1.4, 18.75 μM, read-out: Average LDH release (% of max.)
[16] = section 1.4, 37.5 μM, read-out: Average LDH release (% of max.)
[17] = section 1.4, 75 μM, read-out: Average LDH release (% of max.)
[18] = section 1.4, single replicates, 18.75 μM, read-out: LDH release (% of max.)
[19] = section 1.4, single replicates, 37.5 μM, read-out: LDH release (% of max.)
[20] = section 1.4, single replicates, 75 μM, read-out: LDH release (% of max.)
[21] = section 1.4, 18.75 μM, positive control EN22 18.75 μM
[22] = section 1.4, 37.5 μM, positive control EN22 18.75 μM
[23] = section 1.4, 75 μM, positive control EN22 18.75 μM

Compound | Average (% positive control) [1, 3] [% positive control] | Average IL-1β [1, 4] [ng/mL] | Average IL-1β ([1]; 18.75 μM) [ng/mL] | IL-1β [1, 9] | Average IL-1β ([1]; 37.5 μM) [ng/mL] | IL-1β [1, 10] | Average IL-1β ([1]; 75 μM) [ng/mL] | IL-1β [1, 11] | Average (% positive control) [1, 12] [% positive control] | Average (% positive control) [1, 13] [% positive control] | Average (% positive control) [1, 14] [% positive control] | cytotoxicity at 18.75 µM [2, 15] [%] | cytotoxicity at 37.5 µM [2, 16] [%] | cytotoxicity at 75 µM [2, 17] [%] | cytotoxicity at 18.75 µM [2, 18] [%] | cytotoxicity at 37.5 µM [2, 19] [%] | cytotoxicity at 75 µM [2, 20] [%] | Average (% positive control) [2, 21] [% positive control] | Average (% positive control) [2, 22] [% positive control] | Average (% positive control) [2, 23] [% positive control] | also measured
CCCCOC(=O)c1ccc(NC(=O)NC(CC(C)C)c2nc(-c3nnc[nH]3)no2)cc1 (centres unmarked) [L01.135, butyl 4-[{{3-methyl-1-[3-(4H-1,2,4-triazol-3-yl)-1,2,4-oxadiazol-5-yl]-butyl}carbamoyl)amino]-benzoate] | 0.975 | 0.070 |  |  |  |  |  |  |  |  |  |  |  |  |  |  |  |  |  |  | IL-1β [1, 5]: 0.079 ng/mL and 0.073 ng/mL and 0.057 ng/mL; Average (% positive control) [2, 6]: 11.085 % positive control; cytotoxicity at 50 µM [2, 7]: 8.11%; cytotoxicity at 50 µM [2, 8]: 8.89%
COc1cccc(NC(=O)N(C)Cc2nc(-c3cccnc3)no2)c1 [L01.136, 1-(3-methoxyphenyl)-3-methyl-3-{[3-(pyridin-3-yl)-1,2,4-oxadiazol-5-yl]methyl}urea] | 1.025 | 0.073 |  |  |  |  |  |  |  |  |  |  |  |  |  |  |  |  |  |  | IL-1β [1, 5]: 0.064 ng/mL and 0.073 ng/mL and 0.083 ng/mL; Average (% positive control) [2, 6]: 9.465 % positive control; cytotoxicity at 50 µM [2, 7]: 6.92%; cytotoxicity at 50 µM [2, 8]: 6.95%
CO[C@@H]1C[C@@H](C[C@H]2CC[C@H](C)[C@H]([C@@H](C)C(=O)O)O2)O[C@]2(O[C@](C)([C@H]3CC[C@@](C)([C@@H]4O[C@@H]([C@H]5O[C@@](O)(CO)[C@H](C)C[C@@H]5C)C[C@@H]4C)O3)C[C@H]2C)[C@@H]1C [Nigericin, Nigericin sodium salt, reference compound] |  |  |  |  |  |  |  |  |  |  |  |  |  |  |  |  |  |  |  |  | Average IL-1β ([1]; 5 μM, LPS-primed BMDCs): 7.168 ng/mL; Average (% positive control) ([1]; IL-1β release, 5 μM, positive control nigericin 5 μM): 100.000 % positive control; Average IL-1β ([1]; section 1.3, 5 μM): 3.151 ng/mL; Average (% positive control) ([1]; section 1.3, IL-1β release, 5 μM, positive control nigericin 5 μM): 100.000 % positive control; IL-1β ([1]; section 1.3, single replicates, 5 μM, sodium salt): 3.007 ng/mL and 3.127 ng/mL and 3.318 ng/mL; IL-1β ([1]; single replicates, 5 μM, LPS-primed BMDCs, sodium salt): 6.834 ng/mL and 6.400 ng/mL and 7.872 ng/mL and 6.518 ng/mL and 7.890 ng/mL and 7.496 ng/mL; Average (% positive control) ([2]; 5 μM, positive control nigericin 5 μM): 100.000 % positive control; cytotoxicity at 5 µM ([2]; 5 μM, LPS-primed BMDCs, read-out: Average LDH release (% of max.)): 73.2%; cytotoxicity at 5 µM ([2]; section 1.3, 5 μM, read-out: Average LDH release (% of max.)): 53.7%; cytotoxicity at 5 µM ([2]; single replicates, 5 μM, LPS-primed BMDCs, read-out: LDH release (% of max.)): 61.9%; Average (% positive control) ([2]; section 1.3, 5 μM, positive control nigericin 5 μM): 100.000 % positive control
COc1ccc(NC(=O)Nc2ccc(-c3noc(CC4CCCN(Cc5cccc(F)c5C)C4)n3)cc2)cc1 (centres unmarked) [PM07, 1-[4-(5-((1-(3-fluoro-2-methylbenzyl)piperidin-3-yl)methyl)-1,2,4-oxadiazol-3-yl)phenyl]-3-[(4-methoxy)phenyl] urea] |  |  | 1.335 | 1.117 ng/mL and 1.248 ng/mL and 1.641 ng/mL | 1.594 | 1.916 ng/mL and 1.571 ng/mL and 1.295 ng/mL | 1.217 | 1.202 ng/mL and 1.130 ng/mL and 1.320 ng/mL | 21.124 | 25.211 | 19.256 | 51 | 69.3 | 85.6 | 50.4 | 67.7 | 85.1 | 71.489 | 97.102 | 120.051 | 
Cc1c(F)cccc1CN1CCCC(Cc2nc(-c3ccc(NC(=O)Nc4ccccc4)cc3)no2)C1 (centres unmarked) [PM16, 1-(4-(5-((1-(3-fluoro-2-methylbenzyl)piperidin-3-yl)methyl)-1,2,4-oxadiazol-3-yl)phenyl)-3-phenylurea] |  |  | 0.777 | 0.764 ng/mL and 0.830 ng/mL and 0.736 ng/mL | 0.846 | 0.895 ng/mL and 0.795 ng/mL and 0.848 ng/mL | 0.890 | 0.876 ng/mL and 0.848 ng/mL and 0.948 ng/mL | 12.288 | 13.380 | 14.083 | 72.8 | 90 | 97.5 | 72 | 89 | 100 | 102.052 | 126.179 | 136.598 | 
O=C(Nc1cccc(Cl)c1)Nc1ccc([N+](=O)[O-])cc1Cl [TCMDC-143175, 3-(2-chloro-4-nitrophen-yl)-1-(3-chlorophenyl)-urea] |  |  | 0.105 | 0.102 ng/mL and 0.104 ng/mL and 0.110 ng/mL | 0.291 | 0.309 ng/mL and 0.275 ng/mL and 0.290 ng/mL | 0.417 | 0.423 ng/mL and 0.381 ng/mL and 0.446 ng/mL | 1.666 | 4.609 | 6.592 | 35.5 | 74.7 | 91.4 | 35.3 | 72.8 | 91.5 | 49.754 | 104.647 | 128.113 | 
